Source: patent US11760984B2, “CRISPR protein inhibitors” (THE BROAD INSTITUTE, INC., priority 2017, dated 2023)
“Also recorded” adds a separate entry of the source.

Key:
[1] = system: S. aureus RN4220 strain; assay: Bacterial resistance study against phage (CRISPR-immunity, OD600 growth curves); type: cell-based; settings: 5-20 μM; for blockage of CRISPR-immunity: sensitization of immune bacterial cells to phage: OD600 over 16 hours, phage MOI 1
Description: (§1) Bacterial study. Plasmid pRH248 harboring SpCas9, tracrRNA and a single-spacer array ([…]) (SEQ ID 13) No. targeting phage (DNM474 was constructed via BsaI cloning onto pDB114 as described in Heler et al 6. Plate reader growth curves of bacteria infected with phage were conducted as described previously with minor modifications 7. Overnight cultures were diluted 1:100 into 2 ml of fresh BHI supplemented with appropriate antibiotics and 5 mM CaCl2) and grown to an OD600 of ˜0.2. Immune cells carrying pRH248 were diluted with cells lacking CRISPR-Cas in a 1:10,000 ratio. Following a 15-minute pre-incubation with DMSO or with varying amounts of inhibitors (5-20 μM), the cultures were infected with <DNM474 at an initial MOI of 1. To produce plate reader growth curves, 200 μL of infected cultures, normalized for OD600, were transferred to a 96-well plate in triplicate. OD600 measurements were collected every 10 minutes for 16 hours. Similarly, growth curves to evaluate the toxicity of the compounds at 20 μM (FIG. 32) were conducted on cultures lacking CRISPR in the absence of phage.
as §1, with “NO:38)” for “13) No.”, “DNM474” for “(DNM474”, “al^6.” for “al 6.”, “modifications^7.” for “modifications 7.”, “DNM474” for “<DNM474”, “Similarly, growth curves to evaluate the toxicity of the compounds at 20 μM (FIG. 32) were conducted on cultures lacking CRISPR in the absence of phage.” left out

[2] = system: HEK293T cells; assay: Cell viability assay (ATP content), HEK293T cells; type: cell-based; settings: up to 20 μM, 24 h
Description: FIG. 23—Cell viability assay (ATP content) of […] cells in the presence of compounds. Measurement of ATP content of HEK293T cells upon incubating with BRD7087 and BRD5779 (5-20 μM) for 24 h. Error bars represent ±S.D. from technical replicates (n=3).
FIG. 67. Cell viability assay (ATP content) of HEK293T cells in the presence of compounds. Measurement of ATP content of HEK293T cells upon incubating with BRD7087 and BRD5779 (5-20 μM) for 24 h. Error bars represent ±S.D. from technical replicates (n=3).

[3] = molecular target: SpCas9 (Streptococcus pyogenes serotype M1, UniProt Q99ZW2); assay: mKate2 expression (knockdown) assay; type: cell-based; settings: for activity in mKate2 assay: HEK293 cells, 1.5-5 μM, 24 h
Chain of SpCas9 (Q99ZW2 whole entry): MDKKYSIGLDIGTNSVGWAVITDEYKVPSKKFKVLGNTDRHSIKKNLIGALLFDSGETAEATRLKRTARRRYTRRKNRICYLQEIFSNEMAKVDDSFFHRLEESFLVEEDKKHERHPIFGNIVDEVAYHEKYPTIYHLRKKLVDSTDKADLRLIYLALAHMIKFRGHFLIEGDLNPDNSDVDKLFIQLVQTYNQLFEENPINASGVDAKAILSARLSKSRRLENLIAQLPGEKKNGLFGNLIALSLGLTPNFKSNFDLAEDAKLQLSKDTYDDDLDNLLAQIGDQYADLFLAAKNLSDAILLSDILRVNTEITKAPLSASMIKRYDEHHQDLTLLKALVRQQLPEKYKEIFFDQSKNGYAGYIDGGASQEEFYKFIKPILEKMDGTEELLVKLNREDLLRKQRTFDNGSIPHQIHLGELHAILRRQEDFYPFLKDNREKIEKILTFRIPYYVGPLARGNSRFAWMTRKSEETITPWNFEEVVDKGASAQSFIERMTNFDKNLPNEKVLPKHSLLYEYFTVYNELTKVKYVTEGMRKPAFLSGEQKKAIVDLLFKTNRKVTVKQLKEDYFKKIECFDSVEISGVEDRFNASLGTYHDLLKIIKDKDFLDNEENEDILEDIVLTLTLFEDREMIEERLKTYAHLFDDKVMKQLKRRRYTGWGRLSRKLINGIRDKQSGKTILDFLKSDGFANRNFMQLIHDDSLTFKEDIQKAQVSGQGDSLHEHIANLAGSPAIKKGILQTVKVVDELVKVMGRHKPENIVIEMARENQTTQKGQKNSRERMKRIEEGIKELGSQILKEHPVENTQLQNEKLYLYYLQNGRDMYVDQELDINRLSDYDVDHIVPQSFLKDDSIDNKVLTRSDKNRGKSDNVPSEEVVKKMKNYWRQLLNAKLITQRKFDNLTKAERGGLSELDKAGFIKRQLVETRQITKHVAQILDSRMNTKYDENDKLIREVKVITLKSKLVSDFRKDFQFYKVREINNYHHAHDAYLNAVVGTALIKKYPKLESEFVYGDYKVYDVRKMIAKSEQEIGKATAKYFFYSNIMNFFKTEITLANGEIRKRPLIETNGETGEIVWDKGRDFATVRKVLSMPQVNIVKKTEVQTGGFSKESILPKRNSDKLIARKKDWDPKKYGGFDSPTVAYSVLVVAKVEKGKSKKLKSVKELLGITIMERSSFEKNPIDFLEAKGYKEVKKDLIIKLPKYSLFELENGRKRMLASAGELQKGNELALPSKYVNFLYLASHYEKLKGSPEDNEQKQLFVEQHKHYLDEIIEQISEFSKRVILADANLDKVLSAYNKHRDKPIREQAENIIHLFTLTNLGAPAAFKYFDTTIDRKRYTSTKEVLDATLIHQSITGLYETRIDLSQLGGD
Description: mKate2 expression assay. Approximately 8,000 cells/well were plated in a 96-well format 24 h before transiently transfected with 100 ng of either CgRNA (Addgene Plasmid #64955) or T1gRNA (Addgene Plasmid #62717) plasmids using lipofectamine 2000 (Life Technologies). Transfected cells were allowed to grow in the indicated amount of compound or DMSO for 24 h. Cells were then fixed using 4% paraformaldehyde and imaged with the HCS NuclearMask™ Blue Stain (Life Technologies) as the nuclear counter-staining agent. Imaging was performed with an IXM 137204 ImageXpress Automated High Content Microscope (Molecular Devices) at 20× magnification under two excitation channels (blue and red) with 9 acquiring sites per well. Images were analyzed in the MetaXpress software to determine the % mKate2 positive cells and the % NHEJ was calculated following a reported protocol and plotted using GraphPad Prism 6. The Z′-value was calculated following the formula: […]

[4] = molecular target: T1, SpCas9:gRNA complex (Streptococcus pyogenes serotype M1, UniProt Q99ZW2); assay: 19F NMR binding assay; settings: for Fractional Occupancy (1-Ibound/I0) / LW (linewidth of 19F signal): [Ligand] 50 μM
T1 construct: His6 (N, cleaved yes); made in house; host or cells: E. coli BL21 Star (DE3)
T1 sequence (Q99ZW2 whole entry, one chain of several): as the sequence (Q99ZW2 whole entry) above
Description: (§2) NMR binding assay. All samples were prepared with 50 μM BRD7087 in 20 mM Tris buffer (pH=7.4) with varying concentrations of SpCas9:gRNA in a 3 mm NMR tube. Experiments were performed on a 600 MHz (19F: 564.71 MHz) Bruker Avance III NMR spectrometer equipped with a 5 mm QCI-F CryoProbe and a SampleJet for automated sample handling. To acquire spectra, a standard one-pulse 19F experiment with WALTZ-16 for proton decoupling during acquisition, a 5 second recycle delay, and 256 scans was used. All spectra were recorded at 280 K. NMR data were apodized with a 1 Hz exponential function prior to Fourier transformation. All spectra were baseline corrected; peak widths and intensities were extracted using the automated line-fitting feature provided with the MNova software package. Determination of the value of Kd was accomplished using least squares fitting to the expression given in Equation 8 in the paper by Shortridge et al.2.
Kd values obtained by NMR rely on the assumption that ligand binding is in fast-exchange, which typically holds true for ligands with Kd in the 0.5 μM to 20 mM range.
as §2, with “(^19F:” for “(19F:”, “^19F” for “19F”, “al.^2.” for “al.2.”

## COc1ccc(-c2ccc3c(c2)[C@H]2[C@H](CCN2Cc2ccncc2)[C@@H](CO)N3)cc1 [BRD5779, ((3aR,4S,9bR)-8-(4-Methoxyphenyl)-1-(pyridin-4-ylmethyl)-2,3,3a,4,5,9b-hexahydro-1H-pyrrolo[3,2-c]quinolin-4-yl)methanol]
[1]
  blockage of CRISPR-immunity: sensitization of immune bacterial cells to phage: able to sensitize the immune bacterial cells against target phage in a dose-dependent manner; also recorded: dose-dependent blockage of CRISPR-Cas9 based immunity
[2]
  cytotoxicity: cellular ATP-levels: did not significantly alter the cellular ATP-levels
[3]
  activity in mKate2 assay: Dose-dependent recovery of the mKate2 signal

## OC[C@H]1Nc2ccc(-c3cccc(F)c3)cc2[C@H]2[C@@H]1CCN2Cc1ccncc1 [BRD7087, ((3aR,4S,9bR)-8-(3-Fluorophenyl)-1-(pyridin-4-ylmethyl)-2,3,3a,4,5,9b-hexahydro-1H-pyrrolo[3,2-c]quinolin-4-yl)methanol]
[1]
  activity in phage assay compared with BRD5779: higher activity
  blockage of CRISPR-immunity: sensitization of immune bacterial cells to phage: able to sensitize the immune bacterial cells against target phage in a dose-dependent manner; also recorded: dose-dependent blockage of CRISPR-Cas9 based immunity
[2]
  cytotoxicity: cellular ATP-levels: did not significantly alter the cellular ATP-levels
[4]; 50 μM ligand, 20 mM Tris pH 7.4, 280 K, read-out: binding constant Kd (method of Shortridge et al., peak intensities)
  Kd: ~2200 nM
[4]; 50 μM ligand, broadening from 0.75 μM SpCas9:gRNA
  binding by differential line broadening of 19F signal: relatively tight binding
[4]; [Protein:gRNA] 0.75 μM
  Fractional Occupancy (1-Ibound/I0): 0.1307
  LW (linewidth of 19F signal): 4.3 Hz
[4]; [Protein:gRNA] 1.0 μM
  Fractional Occupancy (1-Ibound/I0): 0.1817
  LW (linewidth of 19F signal): 4.6 Hz
[4]; [Protein:gRNA] 1.25 μM
  Fractional Occupancy (1-Ibound/I0): 0.3042
  LW (linewidth of 19F signal): 5.3 Hz
[4]; [Protein:gRNA] 1.5 μM
  Fractional Occupancy (1-Ibound/I0): 0.3436
  LW (linewidth of 19F signal): 5.9 Hz
[4]; [Protein:gRNA] 1.75 μM
  Fractional Occupancy (1-Ibound/I0): 0.4015
  LW (linewidth of 19F signal): 6.3 Hz
[3]
  IC50: ~5 µM
  activity in mKate2 assay: Dose-dependent recovery of the mKate2 signal; also recorded: more active than BRD5779
